This is an account of results in patent US11273152B2, “TRPV2 antagonists” (Instituto de Medicina Molecular João Lobo Antunes, priority 2017, dated 2022).

In general, IC50 refers to the concentration that gives 50% inhibition. Low readings indicate greater potency in that assay, high ones weaker potency in that assay. A word on the pIC50: it is −log10 of the IC50, conventionally taken in molar units.

pIC50: −log10 of the molar value. Entries after “also recorded” stand apart in the source; their conditions may differ. Like-named read-outs stand apart in the source and are kept apart here. A value given as a limit tells only on which side of the number the result lay.

One assay deals with TRPC3 (Homo sapiens, UniProt Q13507). In words: Fluorescence cell-based assay, TRPC3. Particulars: membrane potential dye, duplicate. How it is done: (§1) The assays were performed at SB Discovery (Glasgow, UK) on a fee-for-service basis. Human TRP cells were trypsinised, counted and seeded in black, clear-bottomed 96 well plates at a density of 50,000 cells per well in 100 μL volume and incubated overnight. Next day, the cells were loaded with calcium 5 dye or membrane potential dye. TRPV1-5, TRPA1, TRPM2, TRPM3, and TRPM8 were tested using the calcium 5 dye. TRPC1, TRPC3-7, and TRPM4-5 were tested using the membrane potential dye. Both dye solutions were made up in HEPES buffered Hank's balanced salt solution (HBSS). Dye solution (90 μL) was added to the wells and incubated at 37° C. for 1 hour. Test compounds and standard inhibitors (10 μL) were then added to the wells and incubated at room temperature for 10 minutes. The plates were then placed in the flexstation and fluorescence monitored every 1.52 seconds. After 20 seconds agonist was added and the fluorescence monitored for 2 minutes at 485 nm/525 nm and 530 nm/565 nm, Ex/Em, for the calcium 5 dye and the membrane potential dye respectively. Controls-TRPV1: capsazepine; TRPV2: tranilast; TRPV3: ruthenium red; TRPV4: ruthenium red; TRPV5: Gd^3+; TRPA1, ruthenium red; TRPC1: Gd^3+; TRPC3: Pyr3; TRPC4: ML 204; TRPC5: ML 204; TRPC6: ML 204; TRPC7: SKF 96365; TRPM2: 2-APB; TRPM3: Mef acid; TRPM4: clotrimazole; TRPM5: TPPO; TRPM8: 2-APB. […]
Chain of TRPC3 (Q13507 whole entry): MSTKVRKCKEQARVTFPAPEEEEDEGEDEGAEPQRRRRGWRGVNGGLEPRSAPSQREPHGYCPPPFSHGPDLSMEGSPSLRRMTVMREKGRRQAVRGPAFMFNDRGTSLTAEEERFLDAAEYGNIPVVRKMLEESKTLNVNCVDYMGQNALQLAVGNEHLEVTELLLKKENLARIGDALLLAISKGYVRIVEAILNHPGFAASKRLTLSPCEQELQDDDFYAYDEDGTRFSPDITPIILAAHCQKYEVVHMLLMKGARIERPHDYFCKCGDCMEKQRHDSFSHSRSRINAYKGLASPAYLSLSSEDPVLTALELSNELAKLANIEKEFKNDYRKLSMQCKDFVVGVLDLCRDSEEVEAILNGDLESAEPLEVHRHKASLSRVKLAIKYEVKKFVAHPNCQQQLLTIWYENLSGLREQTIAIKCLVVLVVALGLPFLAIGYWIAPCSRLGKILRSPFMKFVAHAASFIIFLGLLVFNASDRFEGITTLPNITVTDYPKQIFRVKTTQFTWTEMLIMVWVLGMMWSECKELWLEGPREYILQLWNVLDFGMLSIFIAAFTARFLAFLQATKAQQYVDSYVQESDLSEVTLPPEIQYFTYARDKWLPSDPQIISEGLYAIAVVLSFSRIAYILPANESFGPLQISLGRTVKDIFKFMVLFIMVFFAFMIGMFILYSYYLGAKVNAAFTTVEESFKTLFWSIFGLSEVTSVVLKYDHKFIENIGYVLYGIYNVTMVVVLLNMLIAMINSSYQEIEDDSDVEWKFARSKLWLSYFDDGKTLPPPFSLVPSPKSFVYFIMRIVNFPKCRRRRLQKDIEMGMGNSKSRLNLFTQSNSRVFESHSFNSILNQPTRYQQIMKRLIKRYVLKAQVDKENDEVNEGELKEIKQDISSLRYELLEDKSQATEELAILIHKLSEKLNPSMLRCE

The target of the next assay is TRPC5 (Homo sapiens, UniProt Q9UL62). In words: Fluorescence cell-based assay, TRPC5. Particulars: membrane potential dye, duplicate. How it is done:
as §1

The next assay deals with TRPM4 (Homo sapiens, UniProt Q8TD43). The experiment in a line: Fluorescence cell-based assay, TRPM4. Particulars: membrane potential dye, duplicate. How it is done: as §1
Chain of TRPM4 (Q8TD43 whole entry): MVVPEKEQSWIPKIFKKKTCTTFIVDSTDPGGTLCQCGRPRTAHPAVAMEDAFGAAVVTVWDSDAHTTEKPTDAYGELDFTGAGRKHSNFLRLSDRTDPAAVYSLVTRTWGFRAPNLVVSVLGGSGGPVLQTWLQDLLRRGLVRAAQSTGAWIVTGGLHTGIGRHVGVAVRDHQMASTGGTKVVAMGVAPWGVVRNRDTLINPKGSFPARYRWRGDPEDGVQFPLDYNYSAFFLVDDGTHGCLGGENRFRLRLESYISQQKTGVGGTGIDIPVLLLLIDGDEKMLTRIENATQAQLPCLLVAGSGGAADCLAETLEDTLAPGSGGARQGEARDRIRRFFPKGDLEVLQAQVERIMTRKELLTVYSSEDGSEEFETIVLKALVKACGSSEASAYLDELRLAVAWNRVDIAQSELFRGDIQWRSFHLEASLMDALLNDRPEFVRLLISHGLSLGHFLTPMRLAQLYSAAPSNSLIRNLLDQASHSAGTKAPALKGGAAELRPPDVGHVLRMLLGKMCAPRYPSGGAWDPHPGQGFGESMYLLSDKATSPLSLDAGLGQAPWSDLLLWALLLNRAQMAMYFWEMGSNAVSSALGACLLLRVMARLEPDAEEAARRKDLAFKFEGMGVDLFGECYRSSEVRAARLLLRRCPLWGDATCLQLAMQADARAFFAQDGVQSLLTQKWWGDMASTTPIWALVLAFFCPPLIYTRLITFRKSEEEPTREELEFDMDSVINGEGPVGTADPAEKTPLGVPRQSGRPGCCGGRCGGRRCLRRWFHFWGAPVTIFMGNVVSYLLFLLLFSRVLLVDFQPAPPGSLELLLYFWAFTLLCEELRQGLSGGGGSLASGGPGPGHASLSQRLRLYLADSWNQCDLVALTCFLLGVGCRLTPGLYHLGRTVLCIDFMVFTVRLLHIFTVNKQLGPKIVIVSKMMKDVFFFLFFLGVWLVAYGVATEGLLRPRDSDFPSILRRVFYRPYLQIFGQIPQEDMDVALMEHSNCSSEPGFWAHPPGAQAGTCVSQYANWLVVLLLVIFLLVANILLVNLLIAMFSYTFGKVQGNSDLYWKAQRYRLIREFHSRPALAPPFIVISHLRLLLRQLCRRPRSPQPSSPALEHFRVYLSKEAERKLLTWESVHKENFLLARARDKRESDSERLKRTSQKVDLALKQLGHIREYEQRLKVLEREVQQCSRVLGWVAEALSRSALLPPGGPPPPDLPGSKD
Assay [1] deals with T1, TRPV2 (Homo sapiens, UniProt Q9Y5S1).
T1 sequence (Q9Y5S1 1-764): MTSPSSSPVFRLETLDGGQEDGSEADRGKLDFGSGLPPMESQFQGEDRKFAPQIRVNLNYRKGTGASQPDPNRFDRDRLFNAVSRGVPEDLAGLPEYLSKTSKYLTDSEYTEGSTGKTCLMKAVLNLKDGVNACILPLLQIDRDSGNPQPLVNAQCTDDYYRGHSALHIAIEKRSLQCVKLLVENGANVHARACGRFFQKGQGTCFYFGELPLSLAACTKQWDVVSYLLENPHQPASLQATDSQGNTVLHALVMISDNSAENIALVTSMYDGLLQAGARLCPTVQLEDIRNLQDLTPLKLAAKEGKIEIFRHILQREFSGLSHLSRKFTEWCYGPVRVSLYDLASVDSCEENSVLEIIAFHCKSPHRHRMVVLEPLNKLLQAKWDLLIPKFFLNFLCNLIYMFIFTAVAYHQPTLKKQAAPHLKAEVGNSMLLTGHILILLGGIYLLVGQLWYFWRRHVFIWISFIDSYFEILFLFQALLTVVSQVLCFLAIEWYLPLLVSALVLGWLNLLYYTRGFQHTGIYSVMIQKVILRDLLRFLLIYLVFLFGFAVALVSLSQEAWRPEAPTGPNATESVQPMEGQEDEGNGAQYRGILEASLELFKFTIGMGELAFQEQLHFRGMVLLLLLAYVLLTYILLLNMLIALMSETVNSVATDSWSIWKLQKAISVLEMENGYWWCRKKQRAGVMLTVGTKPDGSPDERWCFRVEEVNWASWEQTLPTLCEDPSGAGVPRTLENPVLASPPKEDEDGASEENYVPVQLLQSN
The experiment in a line: Manual patch-clamp assay, hTRPV2 stable HEK-293 cells. The format is cell-based. As to conditions: n=2; for pIC50: read-out: IC50 against TRPV2, patch-clamp assay. Here is the method:
The assays were performed at SB Discovery (Glasgow, UK) on a fee-for-service basis. Concentration-response curves and washout assays were performed using a manual patch clamp method. HEK-293 cells were grown and prepared, according to the adapted procedure for hTRPV2 stable cell lines at SB Discovery. Cells were serum starved for approximately 24 hours and then changed to serum-containing media prior to electrophysiology testing. The manual patch-clamp assay was carried out at room temperature using a traditional electrophysiological unit. Cells were used within 2-3 hours after addition of serum containing media to the cells. The standard extracellular solution contained 145 mM NaCl, 4 mM KCl, 2 mM CaCl2, 1 mM MgCl2, 10 mM HEPES and 10 mM glucose. The pH was adjusted to 7.4 with NaOH, and the osmolarity was measured as 311 mOsm/L. The standard intracellular solution contained 50 mM KCl, 10 mM NaCl, 60 mM KF, 2 mM MgCl2, 20 mM EGTA and 10 mM HEPES. The pH was adjusted to 7.2 with KOH and the osmolarity was measured as 286 mOsm/L. A standard ramp protocol was used to monitor currents upon addition of control (extracellular solution) and compound solutions. The voltage protocol consisted of a series of voltage ramps from −100 mV to +100 mV, every 5 seconds, from a holding potential of −60 mV. The maximum outward current values during the recordings at +100 mV were used for analysis. Manual patch clamp experiments were carried out using an Axon 200B amplifier and a Digidata 1440A acquisition system from Axon Instruments (Molecular Devices, USA). The software program pClamp (version 10) from Axon Instruments was used to stimulate and record electrical activity. Capacitative transients were compensated electronically from the recordings, however the voltage drop across the series resistance and the liquid junction potential were not compensated. The series resistance was generally less than 10 MΩ, with a mean cell capacity of approximately 25 pF. The GraphPad Prism (version 5) software was used to analyze and plot all graphs. The agonist (cannabidiol; Abcam #ab120448) was prepared as 100 mM stock in 100% DMSO and diluted to 4 μM or 10 μM in physiological solution prior to testing. Piperlongumine was prepared as 100 mM stock in 100% DMSO and diluted to the specified concentrations in physiological solution (100, 50, 10, 1 and 0.1 μM), also containing 4 μM or 10 μM cannabidiol. Ruthenium red (Sigma, #R2751) was prepared daily as 10 mM stock ion distilled water and diluted to 100 μM in physiological solution.
(In general: The patch-clamp technique gives a direct electrical read-out from membranes.)

The target of assay [2] is T1, TRPV2. In words: Co-incubation experiments with cannabidiol (mode of binding). The assay is classed as cell-based.

Chain of TRPC5 (Q9UL62 whole entry): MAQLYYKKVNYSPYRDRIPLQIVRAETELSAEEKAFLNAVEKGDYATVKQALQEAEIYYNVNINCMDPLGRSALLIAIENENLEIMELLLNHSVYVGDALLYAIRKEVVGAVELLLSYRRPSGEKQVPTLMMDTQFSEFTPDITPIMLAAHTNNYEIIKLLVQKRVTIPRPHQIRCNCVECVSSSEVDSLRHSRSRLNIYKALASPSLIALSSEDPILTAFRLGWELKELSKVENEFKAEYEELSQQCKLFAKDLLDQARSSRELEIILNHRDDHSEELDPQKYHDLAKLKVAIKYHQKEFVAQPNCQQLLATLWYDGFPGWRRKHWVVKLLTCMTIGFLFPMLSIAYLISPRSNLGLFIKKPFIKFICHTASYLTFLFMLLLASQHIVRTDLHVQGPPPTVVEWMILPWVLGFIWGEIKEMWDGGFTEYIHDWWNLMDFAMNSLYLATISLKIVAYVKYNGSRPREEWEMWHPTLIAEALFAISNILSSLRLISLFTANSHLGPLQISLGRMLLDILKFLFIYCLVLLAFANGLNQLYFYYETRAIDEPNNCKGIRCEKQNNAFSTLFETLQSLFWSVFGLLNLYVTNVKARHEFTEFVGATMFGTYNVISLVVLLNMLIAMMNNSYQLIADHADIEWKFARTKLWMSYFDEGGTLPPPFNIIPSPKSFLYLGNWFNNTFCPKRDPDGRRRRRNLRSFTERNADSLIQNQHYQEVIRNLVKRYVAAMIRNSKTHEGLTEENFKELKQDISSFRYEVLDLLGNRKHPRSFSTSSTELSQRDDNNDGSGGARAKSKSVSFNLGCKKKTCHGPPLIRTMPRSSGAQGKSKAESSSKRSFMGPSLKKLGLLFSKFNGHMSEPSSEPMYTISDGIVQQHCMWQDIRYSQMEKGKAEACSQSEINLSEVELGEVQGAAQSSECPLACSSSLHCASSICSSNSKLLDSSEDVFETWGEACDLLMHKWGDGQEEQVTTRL

As for `COc1cc(/C=C/C(=O)N2CCC=CC2=O)cc(OC)c1OC` [Compound 1, piperlongumine], the IC50 at TRPC3, against TRPC5 and against TRPM4 was more than 100 µM each time. Besides, the “TRPV2 activity after washout (reversibility)” value at TRPV2 [1] (1 at 100 μM, CBD 4 μM) is “fully restored upon washout; also recorded: full TRPV2 activity can be reinstated”. Moreover, the pIC50 on TRPV2 [1] (stimulus: 4 μM CBD, spread in log units) is 6.00; on TRPV2 [1] (stimulus: 10 μM CBD), less than 4.00. The Mode of antagonism result at TRPV2 [2] (EC50 curves of cannabidiol with increasing concentrations of 1) is on record as “non-competitive (allosteric) antagonism”. Further, on TRPV2 [2] (Michaelis-Menten analysis), the “Concentration of 1 above which apparent vmax of cannabidiol is reduced” value is “higher than 5 pM”.
